Laboratory results from patent publication US20190231757A1, “COMBINATION OF SPLEEN TYROSINE KINASE INHIBITORS AND OTHER THERAPEUTIC AGENTS” (Takeda Pharmaceutical Company Limited, priority 2016, published 2019).
Counter-ions that a name gives are not always drawn.

Tested on: OCI-LY 10 xenografts
Assay: Antitumor activity in CB17 SCID mice bearing OCI-LY10 xenografts, ABT-199 combination (Example 11)
Type: in vivo, mouse
Settings: Day 21, alone or combined
Experimental: Tumor growth inhibition was calculated on Day 21 of the study. The last measurement was taken on Day 46 of the study.
Experimental design: Female CB17 SCID mice (Charles River Laboratories, about 21 g at treatment start) were inoculated subcutaneously in the flank (cell suspension) with 4.0×10^6 OCI-Ly10 cells. Tumor growth was monitored with vernier calipers. Tumor volume was calculated using the formula V=W^2×L/2, where V=volume, W=width and L=length of the tumor. When the mean tumor volume reached approximately 175 mm^3, the animals were randomized into treatment groups (n=5/group). […] Tumor growth and body weight were measured twice per week. Tumor growth inhibition and body weight change were calculated on Day 21 of treatment.
Statistical analysis: The differences in the tumor growth trends over time between pairs of treatment groups were assessed using linear mixed effects regression models. These models account for the fact that each animal was measured at multiple time points. A separate model was fit for each comparison, and the areas under the curve (AUC) for each treatment group were calculated using the predicted values from the model. The percent decrease in AUC (dAUC) relative to the reference group was then calculated. […] Further details regarding pairwise comparisons are provided in the Example 2.
Drug combinations were assessed for synergy using observed AUC values. The change in AUC relative to the control was calculated for both single agent treatment groups as well as the combination group. The interaction between the two compounds was then assessed by comparing the change in AUC observed in the combination group to the sum of the changes observed in both single agents. The results can be divided into four categories: synergistic, additive, sub-additive, and antagonistic. Further details regarding combination analyses are provided in the Example 2.
Once a final analysis was selected, the tumor measurements observed on a date pre-specified by the researcher (typically the last day of treatment) were analyzed to assess tumor growth inhibition. For this analysis, a T/C ratio was calculated for each animal by dividing the tumor measurement for the given animal by the mean tumor measurement across all control animals. The T/C ratios across a treatment group were compared to the T/C ratios of the control group using a two-tailed Welch's t-test.

[1] = Compound A 60 mg/kg, ABT-199 12.5 mg/kg

**Q.** How did the “TGI (%)” value (Compound A 60 mg/kg PO QD, ABT-199 12.5 mg/kg PO QD) turn out when `Cn1cc(-c2nc(N[C@@H]3CCCC[C@@H]3N)c(F)c3c2C(=O)NC3)cn1` [Compound A, 6-((1R,2S)-2-aminocyclohexylamino)-7-fluoro-4-(1-methyl-1H-pyrazol-4-yl)-1H-pyrrolo[3,4-c]pyridine-3 (2H)-one citrate] was run?
**A.** The value was 61.0%.

**Q.** And the “Mean Tumor Volume (mm^3) ± SEM” value [1]?
**A.** The value was 408 ± 104.9 mm^3.

**Q.** What about the T/C [1] of the same compound?
**A.** The T/C was 0.39.
